From the supplement of paper PMC12592484

Experiments:
Assay in all cases: drug sensitivity score (DSS2, normalised partial AUC of dose-response, 72 h CellTiter-Glo viability) (DSS (dimensionless)); higher = more sensitive (stronger growth inhibition / cytotoxicity); extreme values may be limits of the assay
CAF#1 = test system: CAF#1 (primary prostate cancer-associated fibroblasts of myCAF-like type)
Outline: (§1)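 The drug sensitivity score reported here is a partial area under the fitted logistic dose–response curve, divided by the log of the curve's upper asymptote and computed in BREEZE; higher values denote greater sensitivity. Low-passage primary prostate cancer-associated fibroblasts, PF179T, WPMY-1, LNCaP and 22Rv1 cells were seeded into 384-well plates preloaded with compounds at five doses across a 10,000-fold range. CellTiter-Glo 2.0 luminescence gave viability at 72 h, scaled to vehicle and positive-control wells.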

CAF#7 = test system: CAF#7 (primary prostate cancer-associated fibroblasts of myCAF-like type)
Outline: as §1

CAF#2 = test system: CAF#2 (primary prostate cancer-associated fibroblasts of iCAF-like type)
Outline: as §1

PF179T = test system: PF179T
Outline: as §1

CAF#4 = test system: CAF#4 (primary prostate cancer-associated fibroblasts of iCAF-like type)
Outline: as §1

22Rv1 = test system: 22Rv1
Outline: as §1

CAF#5 = test system: CAF#5 (primary prostate cancer-associated fibroblasts of myCAF-like type)
Outline: as §1

WPMY-1 = test system: WPMY-1
Outline: as §1

CAF#6 = test system: CAF#6 (primary prostate cancer-associated fibroblasts of iCAF-like type)
Outline: as §1

LNCAP = test system: LNCAP
Outline: as §1

CAF#3 = test system: CAF#3 (primary prostate cancer-associated fibroblasts of myCAF-like type)
Outline: as §1

SMILES	drug sensitivity score (CAF#1)	drug sensitivity score (CAF#7)	drug sensitivity score (CAF#2)	drug sensitivity score (PF179T)	drug sensitivity score (CAF#4)	drug sensitivity score (22Rv1)	drug sensitivity score (CAF#5)	drug sensitivity score (WPMY-1)	drug sensitivity score (CAF#6)	drug sensitivity score (LNCAP)	drug sensitivity score (CAF#3)
COC(=O)c1ccc2c(c1)NC(=O)/C2=C(\Nc1ccc(N(C)C(=O)CN2CCN(C)CC2)cc1)c1ccccc1 [Nintedanib] (tested concentration range 1-10000 nM)	5.4	10.5	8.6	0	7	8.4	5.5	5.7	7.7	9.2	9.3
NC(=O)c1cccc2cn(-c3ccc([C@@H]4CCCNC4)cc3)nc12 [Niraparib] (tested concentration range 1-10000 nM)	1.5	3.7	3.9	5.8	2.5	7.5	1.7	4.4	1.1	5.5	3.2
Cc1ccccc1CN1C(=O)C2=C(CCN(Cc3ccccc3)C2)N2CCN=C12 [ONC201] (tested concentration range 2.5-25000 nM)	3.6	3.8	6.2	3.1	3.4	13.9	3.1	6.9	4.1	9.3	2.3
O=C(c1cc(Cc2n[nH]c(=O)c3ccccc23)ccc1F)N1CCN(C(=O)C2CC2)CC1 [Olaparib] (tested concentration range 1-10000 nM)	3.8	4.1	4.7	6.4	6.8	5.8	4.5	4.5	3.5	4.4	3
COC(=O)C[C@](O)(CCCC(C)(C)O)C(=O)O[C@@H]1C(OC)=C[C@]23CCCN2CCc2cc4c(cc2[C@H]13)OCO4 [Omacetaxine] (tested concentration range 1-10000 nM)	19.1	21.4	21.9	22	15.3	35	18.7	25.2	20	29.2	20.6
CC1(C)CC[C@]2(NC(=O)C(C)(F)F)CC[C@]3(C)[C@H](C(=O)C=C4[C@@]5(C)C=C(C#N)C(=O)C(C)(C)[C@@H]5CC[C@]43C)[C@@H]2C1 [Omaveloxolone] (tested concentration range 1-10000 nM)	19.8	4.8	23.2	14.8	17	14.4	18.5	18.4	5.3	23.9	4.6
CC(C)c1cc(C(=O)N2Cc3ccc(CN4CCN(C)CC4)cc3C2)c(O)cc1O [Onalespib] (tested concentration range 0.2-2500 nM)	10	11.2	12.1	11.6	7.8	18	8.6	21.1	10.5	18.2	11.8
O=C(NCc1ccncc1)C12CC3CC(C1)CC(c1ccc(Cl)cc1)(C3)C2 [Opaganib] (tested concentration range 5-50000 nM)	2.7	0.4	4.4	3.8	4.1	5.9	0.7	6.8	0.7	8.6	1.2
COC[C@H](NC(=O)c1cnc(C)s1)C(=O)N[C@@H](COC)C(=O)N[C@@H](Cc1ccccc1)C(=O)[C@@]1(C)CO1 [Oprozomib] (tested concentration range 0.2-2500 nM)	14	9.7	16	14.6	11.4	20.7	13.1	25.7	10.5	20.8	10.3
C=CC(=O)Nc1cc(Nc2nccc(-c3cn(C)c4ccccc34)n2)c(OC)cc1N(C)CCN(C)C [Osimertinib] (tested concentration range 0.2-2500 nM)	3.4	4.2	5	1.9	3.7	5.9	4.8	4.6	3	6.4	5.4
O=C(O)C(=O)O.[NH-][C@@H]1CCCC[C@H]1[NH-].[Pt+2] [Oxaliplatin] (tested concentration range 10-100000 nM)	9.7	7.4	10.6	8.8	9.1	13.8	9.4	9	7.3	26.1	8.3
C=CCc1cccc(/C=N/NC(=O)CN2CCN(Cc3ccccc3)CC2)c1O [PAC-1] (tested concentration range 1-10000 nM)	0.3	2	3.6	3.9	0.2	4.4	1.5	6.9	1.9	3.9	1.9
O=C(Nc1cccnc1)N1CCC(Cc2cccc(Oc3ccc(C(F)(F)F)cn3)c2)CC1 [PF-3845] (tested concentration range 1-10000 nM)	0	0	0	3	0	2.3	0	4.6	0	3.3	0.2
COc1ccccc1S(=O)(=O)Nc1ccc2c(c1)CN(C)C(=O)N2 [PFI-1] (tested concentration range 3-30000 nM)	3.1	3.4	2.1	2.6	1.3	6.6	1	4.2	1.8	6.4	4.3
CN1CCN(c2cc(C(=O)Nc3ccc4c(c3)-c3c(c(C(N)=O)nn3-c3ccc(F)cc3)CC4)c(Cl)cn2)CC1 [PHA 408] (tested concentration range 1-10000 nM)	7.2	3.7	7	1.4	4.2	6.1	5.9	4.6	1.2	7.4	2.9
O=C(Nc1cc(Cl)cc2c1[nH]c1cnccc12)c1cccnc1 [PS-1145] (tested concentration range 2.5-25000 nM)	3.1	0	4.1	3.5	0	0	2.5	0.1	0.1	0	1.3
CC(=O)O[C@H]1C(=O)[C@@]2(C)[C@H]([C@H](OC(=O)c3ccccc3)[C@]3(O)C[C@H](OC(=O)[C@H](O)[C@@H](NC(=O)c4ccccc4)c4ccccc4)C(C)=C1C3(C)C)[C@]1(OC(C)=O)CO[C@@H]1C[C@@H]2O [Paclitaxel] (tested concentration range 0.1-1000 nM)	14.8	24.2	16.8	18.2	8.8	22.4	15.4	26.4	15.3	31.3	10.8
C1=N/C2=N/c3ccc(OCCN4CCCC4)c(c3)COC/C=C/COCc3cccc(c3)C(=C1)N2 [Pacritinib] (tested concentration range 1-10000 nM)	6.7	8.1	7.8	4.5	6.1	8.6	7.3	10.5	8.2	8.4	9.4
CC(=O)c1c(C)c2cnc(Nc3ccc(N4CCNCC4)cn3)nc2n(C2CCCC2)c1=O [Palbociclib] (tested concentration range 1-10000 nM)	2.5	2	7.4	5.1	3.3	7.9	4.9	2.1	1.4	7.7	0
Cc1[nH]c2ccccc2c1CCNCc1ccc(/C=C/C(=O)NO)cc1 [Panobinostat] (tested concentration range 0.1-1000 nM)	11.3	7.9	11.4	10.9	8	23.2	10.4	22.9	9.3	23.1	7.7
Cc1ccc(Nc2nccc(N(C)c3ccc4c(C)n(C)nc4c3)n2)cc1S(N)(=O)=O [Pazopanib] (tested concentration range 1-10000 nM)	3.6	5.1	6.7	5	5.4	0	3.7	0.2	1.1	4.1	4
Nc1nc2[nH]cc(CCc3ccc(C(=O)N[C@@H](CCC(=O)O)C(=O)O)cc3)c2c(=O)[nH]1 [Pemetrexed] (tested concentration range 1-10000 nM)	1.2	0	0	0.1	0	0	0	13.5	0	9.4	0.5
OC[C@H]1O[C@@H](n2cnc3c2N=CNC[C@H]3O)C[C@@H]1O [Pentostatin] (tested concentration range 1-10000 nM)	0	0	0	0	0	0	0	0	0	0	0
